Source: PubChem BioAssay AID330 (DTP/NCI, 2004)
Several values for one entry are separate records, joined by “and”; a condition that tells them apart may be missing. Identical values can stand only once. Toxic doses and inconclusive results are not listed. Rule for the calls: active = survival T/C of 150% or more; inactive = T/C below 125% in these data.

Tested on: P388 leukemia ip, CD2F1 mice, survival T/C
Assay: NCI In Vivo Anticancer Drug Screen. Data for tumor model P388 Leukemia (intraperitoneal) in CD2F1 (CDF1) mice
Conditions: endpoint: median survival time, higher = longer survival
In short: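 Mice carrying the transplanted tumor received test compound or vehicle. Survival was recorded in each group, and the value is the treated-group measurement divided by that of the vehicle-treated control group.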

[1] = dose: 50.0 mg/kg/injection, schedule: Q01DX009 (ip), vehicle: saline
[2] = dose: 50.0 mg/kg/injection, schedule: Q01DX005 (ip), vehicle: saline with Tween-80
[3] = dose: 100.0 mg/kg/injection, schedule: Q01DX005 (ip), vehicle: saline with Tween-80
[4] = dose: 200.0 mg/kg/injection, schedule: Q01DX005 (ip), vehicle: saline with Tween-80
[5] = dose: 60.0 mg/kg/injection, schedule: Q01DX005 (ip), vehicle: saline with Tween-80
[6] = dose: 120.0 mg/kg/injection, schedule: Q01DX005 (ip), vehicle: saline with Tween-80
[7] = dose: 240.0 mg/kg/injection, schedule: Q01DX005 (ip), vehicle: saline with Tween-80
[8] = dose: 50.0 mg/kg/injection, schedule: Q01DX009 (ip), vehicle: saline with Tween-80
[9] = dose: 100.0 mg/kg/injection, schedule: Q01DX009 (ip), vehicle: saline with Tween-80
[10] = dose: 200.0 mg/kg/injection, schedule: Q01DX009 (ip), vehicle: saline with Tween-80
[11] = dose: 400.0 mg/kg/injection, schedule: Q01DX009 (ip), vehicle: saline with Tween-80
[12] = dose: 50.0 mg/kg/injection, schedule: Q01DX005 (ip), vehicle: Klucel (hydroxypropylcellulose) (HPC)
[13] = dose: 100.0 mg/kg/injection, schedule: Q01DX005 (ip), vehicle: Klucel (hydroxypropylcellulose) (HPC)
[14] = dose: 200.0 mg/kg/injection, schedule: Q01DX005 (ip), vehicle: Klucel (hydroxypropylcellulose) (HPC)
[15] = dose: 100.0 mg/kg/injection, schedule: Q04DX003 (ip), vehicle: saline with Tween-80
[16] = dose: 200.0 mg/kg/injection, schedule: Q04DX003 (ip), vehicle: saline with Tween-80
[17] = dose: 100.0 mg/kg/injection, schedule: Q04DX003 (ip), vehicle: saline
[18] = dose: 200.0 mg/kg/injection, schedule: Q04DX003 (ip), vehicle: saline
[19] = dose: 400.0 mg/kg/injection, schedule: Q04DX003 (ip), vehicle: saline

Measured: T/C

C(CSC1=NCCN1)CSC1=NCCN1
inactive: dose: 25.0 mg/kg/injection, schedule: Q01DX009 (ip), vehicle: saline 120 % of control | [1] 117 % of control

N=Nc1c(OC(=O)Nc2ccccc2)[nH]c2c(Cl)cc(Cl)cc12
inactive: [2] 100 % of control | [3] 100 % of control | [4] 98 % of control

CCCCn1c(Cl)c(/C=N\Nc2ccccc2[N+](=O)[O-])c2ccccc21
inactive: dose: 100.0 mg/kg/injection, schedule: Q01DX001 (ip), vehicle: saline with Tween-80 93 % of control | dose: 200.0 mg/kg/injection, schedule: Q01DX001 (ip), vehicle: saline with Tween-80 90 % of control | dose: 400.0 mg/kg/injection, schedule: Q01DX001 (ip), vehicle: saline with Tween-80 93 % of control

Cc1cc(C(=O)CSC(=S)SC(C)(C)C)ccc1Cl
inactive: [5] 100 % of control | [6] 96 % of control | [7] 90 % of control

CN(CC1CNc2nc(N)[nH]c(=O)c2N1C=O)c1ccc(C(=O)NC(CCC(=O)O)C(=O)O)cc1 (centres undefined)
inactive: dose: 50.0 mg/kg/injection, schedule: Q01DX009 (ip), vehicle: sodium bicarbonate 101 % of control | dose: 100.0 mg/kg/injection, schedule: Q01DX009 (ip), vehicle: sodium bicarbonate 106 % of control | dose: 200.0 mg/kg/injection, schedule: Q01DX009 (ip), vehicle: sodium bicarbonate 108 % of control

O=C(O)c1c(C(=O)O)c(C(=O)O)c(C(=O)O)c(C(=O)O)c1C(=O)O
inactive: dose: 25.0 mg/kg/injection, schedule: Q01DX009 (ip), vehicle: water 111 % of control | dose: 50.0 mg/kg/injection, schedule: Q01DX009 (ip), vehicle: water 106 % of control | dose: 100.0 mg/kg/injection, schedule: Q01DX009 (ip), vehicle: water 109 % of control | dose: 200.0 mg/kg/injection, schedule: Q01DX009 (ip), vehicle: water 101 % of control

C[C@@]1(CO)CCc2c(c3ccccc3oc2=O)O1
inactive: [5] 94 % of control | [6] 92 % of control | [7] 90 % of control

c1ccc2c(c1)N=C(NNC1=Nc3ccccc3SC1)CS2
inactive: dose: 15.0 mg/kg/injection, schedule: Q01DX005 (ip), vehicle: saline with Tween-80 95 % of control | dose: 30.0 mg/kg/injection, schedule: Q01DX005 (ip), vehicle: saline with Tween-80 92 % of control | [5] 88 % of control

CCOC(=O)C(Cc1ccccc1[N+](=O)[O-])(NC(C)=O)C(=O)OCC
inactive: [8] 94 % of control | [9] 93 % of control | [10] 100 % of control | [11] 103 % of control

C1CCC([Se][Se]C2CCCCC2)CC1
inactive: dose: 50.0 mg/kg/injection, schedule: Q01DX009 (ip), vehicle: Klucel (hydroxypropylcellulose) (HPC) 103 % of control | dose: 100.0 mg/kg/injection, schedule: Q01DX009 (ip), vehicle: Klucel (hydroxypropylcellulose) (HPC) 94 % of control

CNc1nc2c(N)ncnc2n1C1CC(O)C(CO)O1 (centres undefined)
inactive: [12] 101 % of control | [13] 96 % of control | [14] 104 % of control

O=C(O)C(Cc1ccccc1[N+](=O)[O-])N1C(=O)c2ccccc2C1=O (centres undefined)
inactive: [8] 112 % of control | [9] 92 % of control | [10] 94 % of control | [11] 100 % of control

C(=C1c2ccccc2-c2ccccc21)c1ccccc1
inactive: [15] 100 % of control | [16] 100 % of control | dose: 400.0 mg/kg/injection, schedule: Q04DX003 (ip), vehicle: saline with Tween-80 100 % of control

Nc1nc(N)c2nc(CNc3ccc(C(=O)NC(CCC(=O)O)C(=O)O)cc3)cnc2n1 (centres undefined)
inactive: dose: 0.03 mg/kg/injection, schedule: Q01DX009 (ip), vehicle: clinical formulation 105 % of control | dose: 0.04 mg/kg/injection, schedule: Q01DX009 (ip), vehicle: clinical formulation 120 % of control

Cc1[nH]cc2c1C(c1ccccc1)=NCC(=O)N2
inactive: [8] 105 % of control | [9] 100 % of control | [10] 114 % of control

Cc1cc(N=Cc2cccs2)cc(Cl)c1O
inactive: [17] 101 % of control | [18] 99 % of control | [19] 98 % of control

CCCCN(CCCC)CC(O)c1ccc(OCc2ccccc2)c2ccccc12 (centres undefined)
inactive: [2] 102 % of control | [3] 102 % of control | [4] 102 % of control

O=C(O)[C@@H]1C[C@@H](O)CN1
inactive: [1] 96 % of control | dose: 100.0 mg/kg/injection, schedule: Q01DX009 (ip), vehicle: saline 96 % of control | dose: 200.0 mg/kg/injection, schedule: Q01DX009 (ip), vehicle: saline 100 % of control

Nc1nc2c(-c3ccc([N+](=O)[O-])cc3)nnn2c2cccc(Cl)c12
inactive: [5] 98 % of control | [6] 99 % of control | [7] 97 % of control

CC(C)C([N+](C)(C)C)P(=O)([O-])O (centres undefined)
inactive: [9] 100 % of control | [10] 90 % of control

CC(C)(C)N=C(CCC(C#N)(C#N)CCC(=NC(C)(C)C)Nc1c(Cl)cccc1Cl)Nc1c(Cl)cccc1Cl
inactive: [8] 99 % of control | [9] 92 % of control | [10] 92 % of control

O=C1OCC2C3C=CC(O3)C12 (centres undefined)
inactive: [17] 100 % of control | [18] 102 % of control

S=C(NCCl)NCc1ccccc1
inactive: [12] 105 % of control | [13] 100 % of control | [14] 105 % of control

c1ccc2c3c(c4c(c2c1)CN(C1CCCCC1)CO4)OCN(C1CCCCC1)C3
inactive: dose: 6.25 mg/kg/injection, schedule: Q01DX005 (ip), vehicle: saline with Tween-80 106 % of control | dose: 12.5 mg/kg/injection, schedule: Q01DX005 (ip), vehicle: saline with Tween-80 107 % of control and 112 % of control | [2] 116 % of control

O=C(O)c1cc(-c2ccc(-c3ccc(-c4cc(C(=O)O)c5cc(Cl)ccc5n4)cc3)cc2)nc2ccc(Cl)cc12
inactive: [9] 92 % of control | [10] 94 % of control | [11] 109 % of control

BrC1(Br)C2CCCCCCC21 (centres undefined)
inactive: [8] 100 % of control | dose: 50.0 mg/kg/injection, schedule: Q04DX003 (ip), vehicle: saline with Tween-80 100 % of control | [9] 100 % of control | [15] 104 % of control | [10] 100 % of control | [16] 104 % of control

N#CSCc1cc(Cl)c(Cl)cc1Cl
inactive: dose: 25.0 mg/kg/injection, schedule: Q04DX002 (ip), vehicle: saline with Tween-80 106 % of control | dose: 50.0 mg/kg/injection, schedule: Q04DX002 (ip), vehicle: saline with Tween-80 106 % of control | dose: 100.0 mg/kg/injection, schedule: Q04DX002 (ip), vehicle: Klucel (hydroxypropylcellulose) (HPC) 107 % of control | dose: 100.0 mg/kg/injection, schedule: Q04DX002 (ip), vehicle: saline with Tween-80 100 % of control

CCCCC(=O)Nc1ccc(S(=O)(=O)O)c(N=NC2C(=O)N(c3ccccc3)N=C2C)c1 (centres undefined)
inactive: [17] 110 % of control | [18] 100 % of control | [19] 100 % of control

COc1ccccc1-n1cc[n+](C)c1/C=N/O
inactive: dose: 12.5 mg/kg/injection, schedule: Q01DX009 (ip), vehicle: saline with Tween-80 86 % of control | dose: 25.0 mg/kg/injection, schedule: Q01DX009 (ip), vehicle: saline with Tween-80 90 % of control | [1] 99 % of control
